# In patent US20230123334A1, “AMINO LIPID COMPOUND, PREPARATION METHOD THEREFOR, AND APPLICATION THEREOF” (SHENZHEN SHENXIN BIOTECHNOLOGY CO., LTD., priority 2020, published 2023):
# Experiments:
# Assay type in all cases: cell-based
# Hela cells [1] = assay: Transfection of Hela cell line, DNA vectors; settings: 75 ng plasmid DNA, GFP cells / total cells
# In short: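 Amino lipid/DOPE liposomes in sodium acetate pH 5.6 were complexed with 75 ng psin-EGFP-IRES-Puro plasmid for 30 min at room temperature, then mixed with 3-5×10^4 Hela cells in DMEM/10% FBS at 37° C. Hoechst stain after 20-24 h, imaging after a further 20-24 h. Efficiency = GFP-positive cells / total nuclei.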
# Hela cells [2] = assay: Transfection of Hela cell line, mRNA vectors; settings: 50 ng EGFP mRNA per well
# In short: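 HeLa cells in DMEM with 10% FBS transfected with 50 ng EGFP mRNA per well. Readout is percentage of GFP-positive cells among total cells counted by Hoechst nuclear stain; Lipofectamine2000 served as positive control.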
# MCF7 cells [3] = assay: Transfection of MCF7 cell line, DNA vectors; design: concentration or dose not given beside the values; settings: plasmid DNA, GFP cells / total cells
# Procedure: (§1) Cell line: MCF7 cells (ATCC HTB-22)
# Medium DMEM supplemented with […] fetal bovine serum
# (§2) Screening: cell transfection on 96-well plates
# Detection (readout): percentage of the number of GFP fluorescent cells relative to the total number of cells (the total number of cells was determined using nucleus dye Hoechst). Lipofectamine2000 was used as the positive control, according to the manufacturer's instructions.
# (§3) Method: the experimental method was basically the same with Example 4.
# MCF7 cells [4] = assay: Transfection of MCF7 cell line, mRNA vectors; settings: 50 ng EGFP mRNA per well
# Procedure: as §1
# Medium: DMEM supplemented with 10 fetal bovine serum (Invitrogen)
# as §2
# Detection (readout): percentage of the number of GFP fluorescent cells relative to the total number of cells (the total number of cells was determined using nucleus dye Hoechst). Lipofectamine2000 (Invitrogen) was used as the positive control.
# Method: the experimental method was basically the same with Example 4, and the mass of EGFP mRNA (TriLink) for transfection was 50 ng per well.
# [5] = system: embryonic stem cells (hESC2); assay: Screening as DNA vectors in embryonic stem cells, flow cytometry; settings: 75 ng plasmid DNA, 48 hours after transfection, flow cytometer
# Source text: (§4) Cell line: embryonic stem cells (hESC2, cultured according to reported methods: Stem Cells, 2005, 23, 544-549)
# (§5) Medium: mTeSR1 (STEMCELL)
# (§6) Mode of screening: cell transfection on 96-well plates
# (§7) Detection (readout): percentage of the number of GFP fluorescent cells relative to the total number of cells. Lipofectamine Stem was used as the positive control.
# Method: an 8-channel pipette was used for sample addition. The contents shown were for a single well of a 96-well flat plate.
# 1. Stem cells were cultured to 3-5×10^4 cells per well in a 96-well plate treated with matrigel.
# 2. The compound (0.01 mmol) prepared in Example 1 was dissolved in 1 mL of anhydrous ethanol. After ultrasonically dissolved, 10 μL of the resultant amino lipid solution in ethanol was taken and mixed with 5 μL of DOPE solution in ethanol ([…]). The obtained mixture was then added with 35 μL of 0.2 M sodium acetate buffer (pH 5.6), and vortexed at a constant rotating speed for 30 s. Then, 4 μL was taken from the obtained product and added to 46 μL of 0.02 M sodium acetate buffer (pH 5.6), and vortexed at a constant rotating speed for 30 s to form a liposome solution. 5 μL of this liposome solution was mixed with 75 ng of plasmid DNA (pSin-EGFP-IRES-Puro) dissolved in 5 μL of 0.02 M sodium acetate buffer, and allowed to stay at room temperature for 30 min to form a lipid/DNA transfection complex.
# 3. 10 μL of the lipid/DNA transfection complex was incubated at room temperature for 30 min, followed by addition of 90 μL mTeSR1 medium was added and mixing with a pipette. 100 μL of the mixture was added to separate wells of a 96-well culture plate and placed in an incubator containing 5% CO2 at 37° C.
# 4. 48 hours after transfection, the cells were digested with 0.05% Trypsin-EDTA. The cells were resuspended in a PBS buffer and filtered. The cell suspension was placed in a flow cytometer and the number of GFP-expressing cells in no less than 2000 cells was measured so as to obtain the absolute efficiency of cell transfection. The relative efficiency of cell transfection was obtained by comparing the cell transfection efficiency with the positive control Lipofectamine Stem.
# [6] = system: embryonic stem cells (hESC2); assay: Screening as mRNA vectors in embryonic stem cells; settings: 50 ng EGFP mRNA per well
# Procedure: as §4, §5
# Mode of screening: cell transfection on 96-well plate
# as §7
# Method: the experimental method was basically the same with Example 10, and the mass of EGFP mRNA for transfection was 50 ng per well.
# cardiomyocytes [7] = assay: Screening as DNA vectors in cardiomyocytes; design: concentration or dose not given beside the values; settings: method as Example 4
# Procedure: Cell line: cardiomyocytes (obtained from induced differentiation of hESC according to reported methods: J. Mol. Cell. Cardiol. 2011, 51, 288-298)
# (§8) Medium: DMEM supplemented with 10% fetal bovine serum (Invitrogen)
# as §6
# (§9) Detection (readout): percentage of the number of GFP fluorescent cells relative to the total number of cells (the total number of cells was determined using nucleus dye Hoechst). Lipofectamine Stem (Invitrogen) was used as the positive control, according to the manufacturer's instructions.
# as §3
# cardiomyocytes [8] = assay: Screening as mRNA vectors in cardiomyocytes; settings: 50 ng EGFP mRNA per well
# Procedure: Cell line: cardiomyocytes (obtained from induced differentiation of hESC according to reported methods: J Mol. Cell. Cardiol. 2011, 51, 288-298)
# as §8, §6, §9
# Method: the experimental method was basically the same with Example 4, and the mass of EGFP mRNA for transfection was 50 ng per well.
# HEK293 cells [9] = assay: Preliminary screening as DNA vectors, GFP transfection of HEK293 cells; settings: HEK293 cells; lipid/DOPE liposome with 75 ng plasmid DNA (psin-EGFP-IRES-Puro); number of cells expressing GFP divided by total number of nuclei (Hoechst)
# In short: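 First, amino lipid and DOPE were vortexed in sodium acetate buffer (pH 5.6) to form liposomes. Next, these were held with 75 ng EGFP plasmid at room temperature for 30 min. Finally, HEK293 cells were added, cultured at 37° C., Hoechst-stained, and GFP+/total nuclei scored by imaging.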
# HEK293 cells [10] = assay: Preliminary screening as mRNA vectors, EGFP mRNA transfection of HEK293 cells; settings: HEK293 cells, 96-well plates, EGFP mRNA 50 ng per well; percentage of GFP fluorescent cells relative to total number of cells (Hoechst)
# In short: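 Screening format: EGFP mRNA transfection (50 ng/well) into HEK293 in 10% FBS-supplemented DMEM. Percent green fluorescent cells, normalised to Hoechst nuclear count, gave the value; Lipofectamine2000 was the reference transfectant.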
Structure (SMILES),Absolute DNA transfection efficiency in Hela cells (Hela cells [1]) [%],Absolute mRNA transfection efficiency in Hela cells (Hela cells [2]) [%],Absolute DNA transfection efficiency in MCF7 cells (MCF7 cells [3]) [%],Absolute mRNA transfection efficiency in MCF7 cells (MCF7 cells [4]) [%],Absolute DNA transfection efficiency in embryonic stem cells [5] [%],Absolute mRNA transfection efficiency in embryonic stem cells [6] [%],Absolute DNA transfection efficiency in cardiomyocytes (cardiomyocytes [7]) [%],Absolute mRNA transfection efficiency in cardiomyocytes (cardiomyocytes [8]) [%],Absolute DNA transfection efficiency in HEK293 cells (HEK293 cells [9]) [%],Absolute mRNA transfection efficiency in HEK293 cells (HEK293 cells [10]) [%]
CCCCCCCCCCCNc1nc(NCCN2CCCC2)nc(SCCCCCCCC)n1 [Compound S8N11D3],26.2,26.2,3.6,8.0,0.2,2.4,0.5,6.2,,
CCCCCCCCCCCNc1nc(NCCN2CCN(C)CC2)nc(SCCCCCCCC)n1 [Compound S8N11D5],26.5,26.5,16.7,9.1,1.1,1.6,3.0,3.7,,
CCCCCCCCCCCNc1nc(NCCCN(C)C)nc(SCCCCCCCC)n1 [Compound S8N11D6],50.1,50.2,18.0,6.7,0.2,1.9,1.4,5.3,,
CCCCCCCCCCCNc1nc(NCCCN2CCOCC2)nc(SCCCCCCCC)n1 [Compound S8N11D8],6.8,6.8,4.4,0.1,0.7,1.0,2.1,1.9,,
CCCCCCCCCCCNc1nc(NCCCN2CCN(C)CC2)nc(SCCCCCCCC)n1 [Compound S8N11D9],31.9,31.9,45.4,6.6,0.5,1.0,0.6,31.6,,
CCCCCCCCCCCNc1nc(NCC2CCN(C)CC2)nc(SCCCCCCCC)n1 [Compound S8N11D10],23.4,23.4,45.3,4.4,0.7,0.7,6.6,16.8,,
CCCCCCCCCCCSc1nc(NCCN2CCCC2)nc(SCCCCCCCC)n1 [Compound S8S11D3],3.3,3.3,2.7,20.4,0.7,21.4,1.9,21.0,,
CCCCCCCCCCCCCCCCSc1nc(NCCCN2CCOCC2)nc(SCCCCCCCCC)n1 [Compound S9S16D8],11.6,11.6,6.2,7.7,,,,,23.2,11.2
CCCCCCCCCCCCCCCCSc1nc(NCCCN2CCN(C)CC2)nc(SCCCCCCCCC)n1 [Compound S9S16D9],6.9,6.9,23.0,33.8,,,,,13.9,41.4
CCCCCCCCCCCCCCCCSc1nc(NCC2CCN(C)CC2)nc(SCCCCCCCCC)n1 [Compound S9S16D10],28.6,28.6,36.9,46.0,,,,,56.9,66.4
